Reference: PubChem BioAssay (NCI)
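The compound was tested at five concentrations on cells cultured in 96-well plates, with a 48-hour exposure period. GI50 = concentration required for 50% inhibition of growth. TGI: total growth inhibition.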

Tests used:
Test in all cases: NCI anticancer screen, dose series, 48 h
NCI-H522 lung = test system: NCI-H522 lung
UO-31 renal = test system: UO-31 renal
TK-10 renal = test system: TK-10 renal
T-47D breast = test system: T-47D breast
SK-MEL-2 melanoma = test system: SK-MEL-2 melanoma
786-0 renal = test system: 786-0 renal
RXF 393 renal = test system: RXF 393 renal
KM12 colon = test system: KM12 colon
EKVX NSCLC = test system: EKVX NSCLC
IGROV1 ovarian = test system: IGROV1 ovarian
OVCAR-5 ovarian = test system: OVCAR-5 ovarian
CCRF-CEM leukemia = test system: CCRF-CEM leukemia
SW-620 colon = test system: SW-620 colon
SN12C renal = test system: SN12C renal
HOP-62 NSCLC = test system: HOP-62 NSCLC
SK-MEL-28 melanoma = test system: SK-MEL-28 melanoma
UACC-62 melanoma = test system: UACC-62 melanoma
OVCAR-8 ovarian = test system: OVCAR-8 ovarian
HL-60(TB) leukemia = test system: HL-60(TB) leukemia
SNB-75 CNS = test system: SNB-75 CNS
UACC-257 melanoma = test system: UACC-257 melanoma
HCT-116 colon = test system: HCT-116 colon
BT-549 breast = test system: BT-549 breast
NCI-H23 lung = test system: NCI-H23 lung
A498 renal = test system: A498 renal
CAKI-1 renal = test system: CAKI-1 renal
HCC-2998 colon = test system: HCC-2998 colon
NCI/ADR-RES ovarian = test system: NCI/ADR-RES ovarian
RPMI-8226 leukemia = test system: RPMI-8226 leukemia
A549 NSCLC = test system: A549 NSCLC
MCF7 breast = test system: MCF7 breast
OVCAR-3 ovarian = test system: OVCAR-3 ovarian
HT29 colon = test system: HT29 colon
M14 melanoma = test system: M14 melanoma
HCT-15 colon = test system: HCT-15 colon
U251 CNS = test system: U251 CNS
NCI-H226 lung = test system: NCI-H226 lung
COLO 205 colon = test system: COLO 205 colon
K-562 leukemia = test system: K-562 leukemia
SR leukemia = test system: SR leukemia
MDA-MB-231 breast = test system: MDA-MB-231 breast
NCI-H460 lung = test system: NCI-H460 lung
MALME-3M melanoma = test system: MALME-3M melanoma
DU-145 prostate = test system: DU-145 prostate
SK-MEL-5 melanoma = test system: SK-MEL-5 melanoma
PC-3 prostate = test system: PC-3 prostate
HS 578T breast = test system: HS 578T breast
MOLT-4 leukemia = test system: MOLT-4 leukemia
HOP-92 NSCLC = test system: HOP-92 NSCLC
SK-OV-3 ovarian = test system: SK-OV-3 ovarian
LOX IMVI melanoma = test system: LOX IMVI melanoma
SF-539 CNS = test system: SF-539 CNS
MDA-MB-435 = test system: MDA-MB-435
SNB-19 CNS = test system: SNB-19 CNS
SF-268 CNS = test system: SF-268 CNS
ACHN renal = test system: ACHN renal
OVCAR-4 ovarian = test system: OVCAR-4 ovarian
SF-295 CNS = test system: SF-295 CNS

## CNC(=O)Oc1cc(C(C)C)ccc1Sc1ccc(C(C)C)cc1OC(=O)NC
NCI-H522 lung
  GI50: 4980 nM
  TGI: 19.1 µM
UO-31 renal
  GI50: 3.28 µM
  TGI: 16.6 µM
TK-10 renal
  GI50: 14 µM
  TGI: 30.3 µM
T-47D breast
  GI50: 10.2 µM
  TGI: 25.9 µM
SK-MEL-2 melanoma
  GI50: 4210 nM
  TGI: 17.3 µM
786-0 renal
  GI50: 11.5 µM
  TGI: 28.7 µM
RXF 393 renal
  GI50: 2520 nM
  TGI: 9.34 µM
KM12 colon
  GI50: 5.78 µM
  TGI: 18.9 µM
EKVX NSCLC
  GI50: 1590 nM
  TGI: 7.14 µM
IGROV1 ovarian
  GI50: 4.98 µM
  TGI: 23.8 µM
OVCAR-5 ovarian
  GI50: 11.4 µM
  TGI: 25.7 µM
CCRF-CEM leukemia
  GI50: 3410 nM
  TGI: 46.3 µM
SW-620 colon
  GI50: 5010 nM
  TGI: 20.1 µM
SN12C renal
  GI50: 7 µM
  TGI: 24 µM
HOP-62 NSCLC
  GI50: 9.56 µM
  TGI: 22.6 µM
SK-MEL-28 melanoma
  GI50: 4990 nM
  TGI: 17.9 µM
UACC-62 melanoma
  GI50: 4240 nM
  TGI: 16.5 µM
OVCAR-8 ovarian
  GI50: 5.42 µM
  TGI: 27.9 µM
HL-60(TB) leukemia
  GI50: 3.06 µM
  TGI: 12.7 µM
SNB-75 CNS
  GI50: 2880 nM
  TGI: 12.2 µM
UACC-257 melanoma
  GI50: 5.81 µM
  TGI: 20.3 µM
HCT-116 colon
  GI50: 2680 nM
  TGI: 15.2 µM
BT-549 breast
  GI50: 3440 nM
  TGI: 12 µM
NCI-H23 lung
  GI50: 6.5 µM
  TGI: 23.6 µM
A498 renal
  GI50: 12 µM
  TGI: 25 µM
CAKI-1 renal
  GI50: 3340 nM
  TGI: 17.1 µM
HCC-2998 colon
  GI50: 12.2 µM
  TGI: 27.7 µM
NCI/ADR-RES ovarian
  GI50: 3900 nM
  TGI: 18.6 µM
RPMI-8226 leukemia
  GI50: 1830 nM
  TGI: 7.48 µM
A549 NSCLC
  GI50: 5220 nM
  TGI: 18.4 µM
MCF7 breast
  GI50: 5490 nM
  TGI: 18.2 µM
OVCAR-3 ovarian
  GI50: 4390 nM
  TGI: 14.7 µM
HT29 colon
  GI50: 12.6 µM
  TGI: 27.4 µM
M14 melanoma
  GI50: 3610 nM
  TGI: 16.3 µM
HCT-15 colon
  GI50: 1950 nM
  TGI: 16.1 µM
U251 CNS
  GI50: 3500 nM
  TGI: 15.6 µM
NCI-H226 lung
  GI50: 10 µM
  TGI: 25.5 µM
COLO 205 colon
  GI50: 14.4 µM
  TGI: 28.8 µM
K-562 leukemia
  GI50: 1270 nM
  TGI: 14.5 µM
SR leukemia
  GI50: 2200 nM
  TGI: 10 µM
MDA-MB-231 breast
  GI50: 5.48 µM
  TGI: 19.4 µM
NCI-H460 lung
  GI50: 2440 nM
  TGI: 11 µM
MALME-3M melanoma
  GI50: 4750 nM
  TGI: 20.5 µM
DU-145 prostate
  GI50: 4320 nM
  TGI: 14.3 µM
SK-MEL-5 melanoma
  GI50: 2500 nM
  TGI: 11.8 µM
PC-3 prostate
  GI50: 2970 nM
  TGI: 16.9 µM
HS 578T breast
  GI50: 4700 nM
  TGI: 35.6 µM
MOLT-4 leukemia
  GI50: 2960 nM
  TGI: 20.1 µM
HOP-92 NSCLC
  GI50: 2630 nM
  TGI: 9.85 µM
SK-OV-3 ovarian
  GI50: 10.5 µM
  TGI: 23.7 µM
LOX IMVI melanoma
  GI50: 6.09 µM
  TGI: 27.6 µM
SF-539 CNS
  GI50: 4070 nM
  TGI: 17.1 µM
MDA-MB-435
  GI50: 2290 nM
  TGI: 10 µM
SNB-19 CNS
  GI50: 9.57 µM
  TGI: 24.4 µM
SF-268 CNS
  GI50: 5.36 µM
  TGI: 19.4 µM
ACHN renal
  GI50: 6.92 µM
  TGI: 24.4 µM

## Nc1c(C(=O)Nc2cccc(Cl)c2)sc2nc3c(cc12)C(=O)CCC3
NCI-H522 lung
  GI50: 190 nM
  TGI: 0.788 µM
UO-31 renal
  TGI: > 100 µM
TK-10 renal
  GI50: 36.7 µM
  TGI: > 100 µM
T-47D breast
  GI50: 0.422 µM
  TGI: > 100 µM
SK-MEL-2 melanoma
  GI50: 488 nM
  TGI: > 100 µM
786-0 renal
  GI50: 0.739 µM
  TGI: > 100 µM
RXF 393 renal
  GI50: 479 nM
  TGI: > 42.2 µM
KM12 colon
  GI50: 0.298 µM
  TGI: > 100 µM
EKVX NSCLC
  TGI: > 100 µM
IGROV1 ovarian
  GI50: 2.28 µM
  TGI: > 100 µM
OVCAR-5 ovarian
  GI50: 2.09 µM
  TGI: > 100 µM
CCRF-CEM leukemia
  GI50: 383 nM
  TGI: > 100 µM
SW-620 colon
  GI50: 351 nM
  TGI: > 100 µM
SN12C renal
  GI50: 0.836 µM
  TGI: > 100 µM
HOP-62 NSCLC
  GI50: 0.663 µM
  TGI: > 100 µM
SK-MEL-28 melanoma
  GI50: 567 nM
  TGI: > 100 µM
UACC-62 melanoma
  GI50: 349 nM
  TGI: > 100 µM
OVCAR-8 ovarian
  GI50: > 41.3 µM
  TGI: > 100 µM
HL-60(TB) leukemia
  TGI: > 100 µM
SNB-75 CNS
  GI50: 227 nM
  TGI: 2.47 µM
UACC-257 melanoma
  GI50: > 100 µM
  TGI: > 100 µM
HCT-116 colon
  GI50: 431 nM
  TGI: > 100 µM
BT-549 breast
  GI50: 948 nM
  TGI: > 100 µM
NCI-H23 lung
  GI50: 0.751 µM
  TGI: > 100 µM
A498 renal
  GI50: 0.134 µM
CAKI-1 renal
  GI50: 438 nM
  TGI: > 100 µM
HCC-2998 colon
  GI50: 0.849 µM
  TGI: > 100 µM
NCI/ADR-RES ovarian
  GI50: 466 nM
  TGI: > 100 µM
A549 NSCLC
  GI50: 420 nM
  TGI: > 100 µM
MCF7 breast
  GI50: 201 nM
  TGI: > 100 µM
OVCAR-3 ovarian
  GI50: 305 nM
  TGI: > 100 µM
HT29 colon
  GI50: 0.338 µM
  TGI: > 100 µM
M14 melanoma
  GI50: 485 nM
  TGI: > 100 µM
OVCAR-4 ovarian
  GI50: 13.3 µM
  TGI: > 100 µM
HCT-15 colon
  GI50: 411 nM
  TGI: > 100 µM
U251 CNS
  GI50: 599 nM
  TGI: > 60.2 µM
NCI-H226 lung
  GI50: 11.1 µM
  TGI: > 100 µM
COLO 205 colon
  GI50: 0.288 µM
K-562 leukemia
  GI50: 101 nM
  TGI: > 100 µM
SR leukemia
  GI50: 383 nM
  TGI: > 100 µM
MDA-MB-231 breast
  GI50: 1.88 µM
  TGI: > 100 µM
NCI-H460 lung
  GI50: 322 nM
  TGI: > 100 µM
MALME-3M melanoma
  GI50: 498 nM
  TGI: > 100 µM
SF-295 CNS
  GI50: 243 nM
DU-145 prostate
  GI50: 377 nM
  TGI: > 100 µM
SK-MEL-5 melanoma
  GI50: 141 nM
  TGI: > 100 µM
PC-3 prostate
  GI50: 528 nM
  TGI: > 100 µM
HS 578T breast
  GI50: 422 nM
  TGI: > 100 µM
MOLT-4 leukemia
  GI50: > 100000 nM
  TGI: > 100 µM
HOP-92 NSCLC
  TGI: > 100 µM
SK-OV-3 ovarian
  GI50: 0.313 µM
  TGI: > 70.5 µM
LOX IMVI melanoma
  GI50: 0.905 µM
  TGI: > 100 µM
SF-539 CNS
  GI50: 586 nM
  TGI: > 100 µM
MDA-MB-435
  GI50: 56.3 nM
  TGI: 0.284 µM
SNB-19 CNS
  GI50: 0.529 µM
  TGI: > 100 µM
SF-268 CNS
  GI50: > 45.4 µM
  TGI: > 100 µM
ACHN renal
  GI50: > 20 µM
  TGI: > 100 µM
